# Source: ChEMBL document CHEMBL1201862, “PubChem BioAssay data set” (2004)
# The source made the active and inactive calls.
# Tests used:
# [1] = molecular target: T1, Sentrin-specific protease 8 (Homo sapiens, UniProt Q96LD8); assay: inhibition of human SENP8 cleavage activity – biochemical, luminescence, SAR follow-up (AID 504501); format: functional
# T1 sequence (Q96LD8 whole entry): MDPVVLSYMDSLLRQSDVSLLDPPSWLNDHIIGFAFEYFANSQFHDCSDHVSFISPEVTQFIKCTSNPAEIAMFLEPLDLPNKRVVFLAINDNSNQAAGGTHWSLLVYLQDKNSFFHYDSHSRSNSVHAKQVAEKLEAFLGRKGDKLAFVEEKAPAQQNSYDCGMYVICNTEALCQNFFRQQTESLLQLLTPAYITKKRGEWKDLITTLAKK
# [2] = molecular target: T2, Sentrin-specific protease 6 (Homo sapiens, UniProt Q9GZR1); format: functional
# T2 sequence (Q9GZR1 whole entry): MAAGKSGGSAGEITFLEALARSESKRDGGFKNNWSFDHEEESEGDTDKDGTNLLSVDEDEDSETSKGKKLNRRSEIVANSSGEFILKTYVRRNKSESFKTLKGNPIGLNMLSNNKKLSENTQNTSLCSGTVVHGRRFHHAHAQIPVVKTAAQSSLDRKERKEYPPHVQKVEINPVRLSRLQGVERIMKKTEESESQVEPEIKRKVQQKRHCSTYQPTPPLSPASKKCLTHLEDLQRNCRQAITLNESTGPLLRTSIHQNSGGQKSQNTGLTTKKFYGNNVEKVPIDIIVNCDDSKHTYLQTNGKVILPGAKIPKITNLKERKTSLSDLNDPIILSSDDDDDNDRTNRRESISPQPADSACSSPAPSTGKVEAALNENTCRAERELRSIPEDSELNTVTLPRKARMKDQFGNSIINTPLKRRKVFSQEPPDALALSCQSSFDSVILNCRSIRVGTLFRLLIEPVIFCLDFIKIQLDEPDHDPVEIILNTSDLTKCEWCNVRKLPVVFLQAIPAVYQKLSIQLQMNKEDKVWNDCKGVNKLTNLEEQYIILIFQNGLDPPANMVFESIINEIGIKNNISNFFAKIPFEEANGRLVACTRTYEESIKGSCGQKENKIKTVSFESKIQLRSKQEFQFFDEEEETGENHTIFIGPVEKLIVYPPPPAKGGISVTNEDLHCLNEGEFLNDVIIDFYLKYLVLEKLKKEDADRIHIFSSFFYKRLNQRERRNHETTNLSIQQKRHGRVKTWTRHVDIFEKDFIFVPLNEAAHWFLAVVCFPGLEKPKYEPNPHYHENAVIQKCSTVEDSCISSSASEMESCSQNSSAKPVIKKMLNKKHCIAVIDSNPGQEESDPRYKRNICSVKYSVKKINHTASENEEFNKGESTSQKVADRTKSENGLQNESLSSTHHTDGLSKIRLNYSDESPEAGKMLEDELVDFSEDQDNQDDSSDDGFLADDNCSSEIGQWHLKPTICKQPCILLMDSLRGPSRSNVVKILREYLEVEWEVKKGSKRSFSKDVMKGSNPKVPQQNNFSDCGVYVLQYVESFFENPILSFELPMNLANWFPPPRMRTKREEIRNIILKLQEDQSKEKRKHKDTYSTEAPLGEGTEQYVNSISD
# Caspase-3 [3] = molecular target: T3, Caspase-3 (Homo sapiens, UniProt P42574); format: functional
# T3 sequence (P42574 whole entry): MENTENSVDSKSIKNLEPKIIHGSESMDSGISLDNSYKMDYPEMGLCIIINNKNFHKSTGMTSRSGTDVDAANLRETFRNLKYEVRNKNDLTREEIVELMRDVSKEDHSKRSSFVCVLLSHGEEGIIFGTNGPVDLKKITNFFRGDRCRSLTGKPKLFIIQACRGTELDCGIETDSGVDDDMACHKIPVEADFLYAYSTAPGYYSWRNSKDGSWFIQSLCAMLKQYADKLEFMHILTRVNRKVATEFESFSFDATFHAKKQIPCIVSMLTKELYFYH
# [4] = molecular target: T1, Sentrin-specific protease 8; format: functional
# Caspase-3 [5] = molecular target: T3, Caspase-3; assay: SAR Analysis of small molecule inhibitors of Sentrin-specific proteases (SENPs) using a Caspase-3 Selectivity assay. [Related pubchem assays (depositor defined):AID2540, AID2599, AID434973, AID489001]; format: functional
# [6] = molecular target: T2, Sentrin-specific protease 6; assay: SAR Analysis of small molecule inhibitors of Sentrin-specific protease 6 (SENP6) using a Luminescent assay. [Related pubchem assays (depositor defined):AID2582, AID2599]; format: functional
# [7] = molecular target: T4, Polyadenylate-binding protein 1 (Homo sapiens, UniProt P11940); assay: MLLE domain peptide-binding blockers, IC50 – biochemical, fluorescence polarization, FITC-PAM2 peptide, dose response (AID 602259); format: functional; conditions: read-out: IC50_Mean
# [8] = molecular target: Dual specificity tyrosine-phosphorylation-regulated kinase 1A (Rattus norvegicus, UniProt Q63470); format: biochemical, Homo sapiens
# [9] = molecular target: T5, Sentrin-specific protease 7 (Homo sapiens, UniProt Q9BQF6); assay: inhibition of human SENP7 cleavage activity – biochemical, luminescence, SAR follow-up (AID 504497); format: functional
# T5 sequence (Q9BQF6 whole entry): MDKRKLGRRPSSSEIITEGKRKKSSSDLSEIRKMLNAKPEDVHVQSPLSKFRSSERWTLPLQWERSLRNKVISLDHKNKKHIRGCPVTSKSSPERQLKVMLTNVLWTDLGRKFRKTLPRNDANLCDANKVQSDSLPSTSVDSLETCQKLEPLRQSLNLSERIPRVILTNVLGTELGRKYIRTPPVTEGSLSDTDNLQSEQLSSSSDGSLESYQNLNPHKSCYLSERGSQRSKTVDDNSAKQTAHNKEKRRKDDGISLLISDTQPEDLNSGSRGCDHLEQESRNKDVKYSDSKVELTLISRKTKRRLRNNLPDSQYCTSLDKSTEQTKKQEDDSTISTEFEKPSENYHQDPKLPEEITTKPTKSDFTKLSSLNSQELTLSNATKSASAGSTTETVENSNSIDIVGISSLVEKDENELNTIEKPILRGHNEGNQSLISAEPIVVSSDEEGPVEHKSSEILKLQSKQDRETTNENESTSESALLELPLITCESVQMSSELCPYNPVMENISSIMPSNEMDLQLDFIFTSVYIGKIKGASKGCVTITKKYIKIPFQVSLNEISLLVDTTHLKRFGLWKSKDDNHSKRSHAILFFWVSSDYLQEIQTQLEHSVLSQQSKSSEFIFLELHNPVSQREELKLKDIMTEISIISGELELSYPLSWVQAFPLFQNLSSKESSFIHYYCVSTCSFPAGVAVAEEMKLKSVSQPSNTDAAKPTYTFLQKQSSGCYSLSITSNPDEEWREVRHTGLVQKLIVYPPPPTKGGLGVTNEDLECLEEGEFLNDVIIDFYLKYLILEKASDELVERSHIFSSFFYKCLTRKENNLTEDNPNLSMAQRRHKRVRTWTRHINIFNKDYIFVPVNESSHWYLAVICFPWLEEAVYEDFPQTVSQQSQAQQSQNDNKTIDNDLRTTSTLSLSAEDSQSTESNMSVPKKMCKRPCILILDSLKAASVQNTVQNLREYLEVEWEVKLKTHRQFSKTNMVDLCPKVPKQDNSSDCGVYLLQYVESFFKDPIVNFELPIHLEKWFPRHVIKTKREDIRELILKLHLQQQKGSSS
# [10] = molecular target: T6, Mannose-6-phosphate isomerase (Homo sapiens, UniProt P34949); assay: MPI inhibition at elevated mannose 6-phosphate – biochemical, fluorescence intensity, high mannose 6-phosphate, primary screen (AID 1220)
# T6 sequence (P34949 whole entry): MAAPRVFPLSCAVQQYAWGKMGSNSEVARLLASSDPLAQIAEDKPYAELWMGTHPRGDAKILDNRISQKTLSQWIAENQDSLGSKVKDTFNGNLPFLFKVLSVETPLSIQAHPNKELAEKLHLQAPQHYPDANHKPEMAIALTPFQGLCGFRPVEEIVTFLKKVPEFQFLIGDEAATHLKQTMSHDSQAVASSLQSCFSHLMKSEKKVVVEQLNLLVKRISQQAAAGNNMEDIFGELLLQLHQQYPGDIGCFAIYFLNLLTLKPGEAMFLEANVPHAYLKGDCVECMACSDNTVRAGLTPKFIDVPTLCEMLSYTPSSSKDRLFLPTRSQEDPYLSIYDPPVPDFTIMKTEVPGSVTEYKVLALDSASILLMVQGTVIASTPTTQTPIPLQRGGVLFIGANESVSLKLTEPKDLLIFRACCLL
# [11] = molecular target: T4, Polyadenylate-binding protein 1; assay: MLLE binding blockers, Cy5 peptide tracer – biochemical, fluorescence polarization, Cy5-PAM2 peptide, secondary, miRNA deadenylation inhibitor project, dose response (AID 602260); format: functional; conditions: read-out: IC50_Mean
# [12] = molecular target: T5, Sentrin-specific protease 7; format: functional
# Genome polyprotein = Genome polyprotein (dengue virus type 2, UniProt P29990); assay: flavivirus cap methylation enzyme inhibition – biochemical, confirmation dose response, primary screen (AID 588689); format: functional
# [13] = Fluorescence polarization-based biochemical high throughput dose response assay for activators of the Protein Kinase A-R2B (PKA-R2B) complex. [Related pubchem assays (depositor defined):AID504700, AID504704, AID504796, AID504797]
# [14] = PKA-R1A complex activators, counter-screen titration – biochemical, Cy5-IP20 fluorescence polarization, 1536-well, triplicate, counter-screen for PKA-R2B activator project, dose response (AID 504896)
# Bcl-2-like protein 10 = molecular target: T7, Bcl-2-like protein 10 (Homo sapiens, UniProt Q9HD36); assay: Isothermal titration calorimetry (ITC) with Bcl-B and compounds active in primary screen. [Related pubchem assays (depositor defined):AID1693]; format: functional
# T7 sequence (Q9HD36 whole entry): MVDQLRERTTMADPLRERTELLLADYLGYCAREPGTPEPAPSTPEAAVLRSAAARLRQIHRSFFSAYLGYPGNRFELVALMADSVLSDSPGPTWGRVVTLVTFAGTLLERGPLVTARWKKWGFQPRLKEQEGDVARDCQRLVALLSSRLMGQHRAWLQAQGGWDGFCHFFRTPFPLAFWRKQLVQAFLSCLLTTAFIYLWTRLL
# Streptococcus = assay: GAS UMAA2166 growth inhibition – luminescence, BacTiterGlo, counter-screen for streptokinase expression inhibitor project, dose response (AID 1915); format: functional, organism-based;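 also: potency for reduction of bacterial viability or growth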
# [15] = test system: Streptococcus sp. 'group A'; assay: Streptococcus pyogenes SK(-)GAS viability under kanamycin – luminescence, BacTiterGlo, confirmation, counter-screen for streptokinase expression inhibitor project, dose response (AID 1900); format: functional, organism-based
# Streptokinase A = molecular target: T8, Streptokinase A (Streptococcus pyogenes serotype M1, UniProt P10520); assay: viability-normalized secreted streptokinase activity reduction – plasminogen activation absorbance, OD405, dose response (AID 1914); format: functional, Streptococcus pyogenes M1 GAS;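 also: secreted streptokinase activity via plasminogen activation per viability signal from cell pellet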
# T8 sequence (P10520 whole entry): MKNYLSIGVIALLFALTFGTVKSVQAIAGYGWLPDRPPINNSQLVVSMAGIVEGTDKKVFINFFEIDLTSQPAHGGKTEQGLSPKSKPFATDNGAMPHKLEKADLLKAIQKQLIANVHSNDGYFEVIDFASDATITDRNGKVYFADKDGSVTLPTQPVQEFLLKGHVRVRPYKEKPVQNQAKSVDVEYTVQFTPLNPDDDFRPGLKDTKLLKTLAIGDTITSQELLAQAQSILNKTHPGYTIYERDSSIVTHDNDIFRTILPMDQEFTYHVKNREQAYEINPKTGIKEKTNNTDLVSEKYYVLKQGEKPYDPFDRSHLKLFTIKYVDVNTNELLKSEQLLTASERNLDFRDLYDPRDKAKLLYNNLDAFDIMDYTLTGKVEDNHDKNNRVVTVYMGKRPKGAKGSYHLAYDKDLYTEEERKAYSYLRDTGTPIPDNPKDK
# [16] = molecular target: Dual specificity protein kinase CLK1 (Homo sapiens, UniProt P49759); assay: inhibition of human CLK1 activity – biochemical, cherry-picked samples, selectivity assay for Dyrk1A inhibitor project, dose response (AID 588811)
# Chain of Dual specificity protein kinase CLK1 (P49759 whole entry): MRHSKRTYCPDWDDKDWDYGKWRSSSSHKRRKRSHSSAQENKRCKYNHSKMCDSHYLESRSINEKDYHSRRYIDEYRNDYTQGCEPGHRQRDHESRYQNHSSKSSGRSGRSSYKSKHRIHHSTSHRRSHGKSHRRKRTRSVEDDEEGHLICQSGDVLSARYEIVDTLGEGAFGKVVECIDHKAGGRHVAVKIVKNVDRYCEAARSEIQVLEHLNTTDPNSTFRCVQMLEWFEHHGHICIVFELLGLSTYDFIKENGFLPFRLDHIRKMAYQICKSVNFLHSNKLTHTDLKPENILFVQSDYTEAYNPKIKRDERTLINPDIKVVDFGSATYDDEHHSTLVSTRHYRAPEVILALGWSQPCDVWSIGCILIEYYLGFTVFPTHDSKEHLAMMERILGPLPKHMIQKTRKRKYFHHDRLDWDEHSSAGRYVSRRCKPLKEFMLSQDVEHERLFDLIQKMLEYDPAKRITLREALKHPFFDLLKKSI
# T4 sequence (P11940 whole entry, the tested form may be a part): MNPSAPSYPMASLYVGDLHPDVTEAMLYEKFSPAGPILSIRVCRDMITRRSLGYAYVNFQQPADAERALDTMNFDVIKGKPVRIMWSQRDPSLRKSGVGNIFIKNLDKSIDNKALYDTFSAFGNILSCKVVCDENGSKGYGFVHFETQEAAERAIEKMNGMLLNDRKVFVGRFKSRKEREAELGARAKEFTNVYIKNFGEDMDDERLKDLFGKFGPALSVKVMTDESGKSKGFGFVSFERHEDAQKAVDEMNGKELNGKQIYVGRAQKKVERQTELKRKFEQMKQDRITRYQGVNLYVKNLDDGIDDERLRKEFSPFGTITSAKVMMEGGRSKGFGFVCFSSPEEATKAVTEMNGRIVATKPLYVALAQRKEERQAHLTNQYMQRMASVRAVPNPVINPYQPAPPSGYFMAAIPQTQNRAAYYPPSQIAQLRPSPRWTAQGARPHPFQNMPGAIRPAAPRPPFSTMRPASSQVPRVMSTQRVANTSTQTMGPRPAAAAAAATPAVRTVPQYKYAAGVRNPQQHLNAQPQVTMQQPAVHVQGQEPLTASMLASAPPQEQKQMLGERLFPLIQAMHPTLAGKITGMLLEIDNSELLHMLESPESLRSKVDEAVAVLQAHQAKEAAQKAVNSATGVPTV
# Chain of Genome polyprotein (P29990 2492-3391 limits assumed): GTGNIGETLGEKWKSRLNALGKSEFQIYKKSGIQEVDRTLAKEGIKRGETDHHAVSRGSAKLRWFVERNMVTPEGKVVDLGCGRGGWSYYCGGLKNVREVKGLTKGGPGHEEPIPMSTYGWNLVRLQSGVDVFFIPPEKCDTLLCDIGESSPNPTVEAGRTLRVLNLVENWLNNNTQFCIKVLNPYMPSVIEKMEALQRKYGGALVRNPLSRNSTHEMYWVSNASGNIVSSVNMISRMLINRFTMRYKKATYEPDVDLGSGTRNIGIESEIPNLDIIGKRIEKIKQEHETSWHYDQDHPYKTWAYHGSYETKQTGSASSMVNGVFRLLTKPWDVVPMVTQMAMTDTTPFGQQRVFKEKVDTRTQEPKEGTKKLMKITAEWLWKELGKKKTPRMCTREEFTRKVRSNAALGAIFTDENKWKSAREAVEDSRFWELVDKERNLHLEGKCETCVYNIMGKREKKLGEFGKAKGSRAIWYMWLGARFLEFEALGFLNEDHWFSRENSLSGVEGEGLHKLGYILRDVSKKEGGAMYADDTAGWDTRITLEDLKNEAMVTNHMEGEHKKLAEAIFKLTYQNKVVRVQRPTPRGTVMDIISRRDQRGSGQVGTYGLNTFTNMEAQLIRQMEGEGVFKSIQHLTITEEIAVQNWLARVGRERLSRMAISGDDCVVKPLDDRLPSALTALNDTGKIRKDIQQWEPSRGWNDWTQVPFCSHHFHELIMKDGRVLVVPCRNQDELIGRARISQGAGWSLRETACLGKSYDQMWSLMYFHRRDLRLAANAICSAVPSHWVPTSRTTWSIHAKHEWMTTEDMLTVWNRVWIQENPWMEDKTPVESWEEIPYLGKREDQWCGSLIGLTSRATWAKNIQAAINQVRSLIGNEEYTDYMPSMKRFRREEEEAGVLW
smiles,measurement,setting,value
COc1ccc2c(C#N)c3ccccn3c2c1,IC50,[1],> 99 µM (inactive)
same,IC50,[2],16.6 µM (active)
same,IC50,Caspase-3 [3],54.8 µM (active)
same,IC50,[4],> 100 µM (inactive)
same,IC50,Caspase-3 [5],65.4 µM (active)
same,IC50,[6],> 99 µM (inactive)
same,IC50,[7],21.2 µM (inactive)
same,AC50,[8],0.242 µM (active)
same,IC50,[9],> 99 µM (inactive)
same,IC50,[10],> 50 µM (not active)
same,IC50,[11],> 66 µM (inactive)
same,IC50,[12],> 100 µM (inactive)
CN(C)c1ccc(N=Nc2ccc(S(=O)(=O)O)cc2)c2ccccc12,IC50,Genome polyprotein,46.2 µM (active)
same,EC50,[13],69 µM (inactive)
same,EC50,[14],> 114 µM (inactive)
O=c1c2c(n3nnnc3n1Cc1ccccc1)-c1ccccc1CC21CCCC1,IC50,Bcl-2-like protein 10,0.2 µM (active)
same,EC50,Streptococcus,> 150 µM (not active)
same,EC50,[15],26.3 µM (active)
same,EC50,Streptokinase A,6.74 µM (active)
CSCC(=O)Nc1nc(-c2ccc3c(c2)OCCO3)cs1,AC50,[16],8.63 µM (active)
